Experimental findings from patent US20080193963A1, “Method of Determining the State of Activation of a Protein” (NAMBITION GMBH, priority 2005, published 2008) are described below.

Structures are written as SMILES.

In the test the target is T1, NhaA (Escherichia coli, UniProt P13738).
T1 construct: Pulling NhaA (402aa) from either the N- or C-terminus; His6 (C); made in house; host or cells: E. coli BL21(DE3)
Description: Single-molecule force spectroscopy (SMFS) unfolding of NhaA in presence of inhibitor. It counts as binding. The protocol: We used a NanoWizard AFM (JPK Instruments, Germany) with an 850 nm laser detection system. As AP absorbs light between 290 and 350 nm, we avoided double-photon excitation and photobleaching by the laser. The spring constants of the 200 μm long (di-Veeco, USA) and 80μ long (Olympus, Japan) Si3N4 AFM cantilevers used were determined using the equipartion theorem (Butt H. J., 1995; Florin, 1995). NhaA was reconstituted into E. coli polar lipid bilayers forming two-dimensional crystals (Williams et al., 1999). Membranes were immobilized on freshly cleaved mica in 200 mM KCl, 10% glycerol, 25 mM K^+-acetate, pH 4.0 for 20 min. Experiments were performed in buffer solutions containing 190 mM KCl and 10 mM NaCl at pH 7.7 (20 mM tris-HCl) and pH 4.0 (20 mM citric acid). AP concentrations of prepared solutions were determined by their optical densities at λ=305.5 using the excitation coefficient eAP=7500 M^−1·cm^−1 (Additional Ref. 151). Solutions containing AP were kept away from light and experiments were performed in a dark room. Buffer solutions were made in fresh nano-pure water (18.2MΩ·cm^−1), using p. a. purity grade reagents from Sigma/Merck. AFM topographs of immobilized membrane patches resolved the crystalline NhaA arrangements, which were selected to unfold individual proteins (Kedrov et al., 2004).
Only C-terminal unfolding events were studied as they are dominant at pH 7.7 (Additional Ref. 152). To obtain the unfolded polpeptide chain length each force peak was fifted using the worm-like-chain (Bustamante et al., 1994) model as described ([…]). Individual unfolding barriers were located by subtracting the unfolded polypeptide length fron the C-terminus. For each force peak (unfolding barrier) the probability and average forces were calculated. At every studied condition up to 150 single-molecule unfolding events were analyzed using Igor Pro (Wavemetrics Inc., USA) and home-written macros. To probe the statistical difference of data sets the data were tested against one-way ANOVA analysis.

T1 sequence (P13738 whole entry): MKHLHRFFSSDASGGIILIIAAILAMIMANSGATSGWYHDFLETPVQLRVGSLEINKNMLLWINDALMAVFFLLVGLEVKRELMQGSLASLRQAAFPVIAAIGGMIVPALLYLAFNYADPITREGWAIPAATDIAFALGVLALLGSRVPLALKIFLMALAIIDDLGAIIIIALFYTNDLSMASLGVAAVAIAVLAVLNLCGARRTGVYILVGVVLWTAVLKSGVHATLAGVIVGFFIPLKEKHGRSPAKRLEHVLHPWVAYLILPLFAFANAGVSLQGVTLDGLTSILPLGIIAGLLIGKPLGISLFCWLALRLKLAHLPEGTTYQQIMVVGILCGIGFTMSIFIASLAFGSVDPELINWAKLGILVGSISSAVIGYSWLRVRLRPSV

In the case of `NC1=Nc2cccc3cccc(c23)N1` [AP, 2-aminoperimidine], the “"stable" fraction in histograms of force at helix IX (AP binding) with increasing Na+ concentration” value (40 μM AP, 10 or 200 μM NaCl as printed) is recorded as “drastic decrease”. Further, the “average strength of the interaction detected by the 125aa force peak (helix XI as printed)” value (40 μM AP, NhaA activated at pH 7.7, mean ±SD, n=95, without AP 75±29 pN (n=61), p<0.0001) was 105±41 pN. Further, the “enhanced interaction strength of a fraction of NhaA molecules (125aa peak) after exposure to AP” value (pH 7.7, NhaA.AP complex population, free NhaA ≈75 pN) was “≈ 140 pN”. For the same compound, the “NhaA molecules that established enhanced stability at α-helix IX” value (pH-locked conformation, pH 4.0, incubated with 40 μM AP) is given as “≈ 15%”.
